Assay results as given in publication PMC10977697 (PLOS ONE, 2024).
Where no end group is shown, it is not given here.

system: PCSK9; type: binding, human; settings: spot phage ELISA signal-to-noise on PCSK9

In order of rising S/N:
1. GPTQSAFGPCGGIGYSGPTVCASGTTCQVLSPDVSQCLPGAS (disulfide (positions not given here)) [PCSK9 CBD 5]  2.6
2. GPTQSEYGMCGGIGYSGPTVCASGTTCQVLDPMTSQCLPGAS (disulfide (positions not given here)) [PCSK9 CBD 3]  2.6
3. GPAHSLFGMCGGIDYSGPTVCASGTTCHVLNPTTSHCLPRAS (disulfide (positions not given here)) [PCSK9 CBD 8]  5.0
4. GCNLGYWWKQWFCKQDSDCLAGCVCERPRDCG (disulfide (positions not given here)) [PCSK9 EET I-II 2]  6.1
5. GCGYWYRVWFCKQDSDCLAGCVCQEPGPCG (disulfide (positions not given here)) [PCSK9 EET I-II 3]  6.4
6. GCSWVPYWCKQDSDCLAGCVCWEMVWCD (disulfide (positions not given here)) [PCSK9 EET I-II 6]  7.0
7. GPTQSEYGMCGGIGYSGPTVCASGTTCQVLDPTTSQCLPGAS (disulfide (positions not given here)) [PCSK9 CBD 10]  7.2
8. GPTHSTYGQCGGIGYSGQSVCASGTTCQVLWAALSWCLPGAS (disulfide (positions not given here)) [PCSK9 CBD 12]  7.8
9. GPTQSHYGLCGGIGYSGPTVCASGTTCQVLSPEFSQCLPGAS (disulfide (positions not given here)) [PCSK9 CBD 13]  8.0
10. GCGYWFYEWFCKQDSDCLAGCVCDPNGFCG (disulfide (positions not given here)) [PCSK9 EET I-II 20]  9.0
11. GCGYWYRIWFCKQDSDCLAGCVCGPNGFCG (disulfide (positions not given here)) [PCSK9 EET I-II 9]  9.4
12. GPTQSEYGMCGGIGYSGPTVCASGTTCQVLDPTTSQCLPGAS (disulfide (positions not given here)) [PCSK9 CBD 17]  11.3
13. GCGYWWKHWFCKQDSDCLAGCVCGPNGFCG (disulfide (positions not given here)) [PCSK9 EET I-II 10]  12.1
14. GPTQSAYGQCGGIGYSGPTVCASGTTCQVLWPQVSWCLPGAS (disulfide (positions not given here)) [PCSK9 CBD 23]  13.9
15. GPTQSDYGMCGGIGYSGPTVCASGTTCQVLDPYTSQCLPGAS (disulfide (positions not given here)) [PCSK9 CBD 28]  14.2
16. GCGYWWSTWFCKQDSDCLAGCVCGPNGFCG (disulfide (positions not given here)) [PCSK9 EET I-II 4]  15.0
17. GCYHGYWYITWFCKQDSDCLAGCVCSQDEQCG (disulfide (positions not given here)) [PCSK9 EET I-II 14]  17.0
18. GCGYWWKQWFCKQDSDCLAGCVCGPNGFCG (disulfide (positions not given here)) [PCSK9 EET I-II 17]  17.6
19. GCGYWWVQWFCKQDSDCLAGCVCGPNGFCD (disulfide (positions not given here)) [PCSK9 EET I-II 11]  19.1
20. GCGYWWVQWFCKQDSDCLAGCVCGPNGFCD (disulfide (positions not given here)) [PCSK9 EET I-II 18]  20.1
21. GCHEGYWWRQWFCKQDSDCLAGCVCGPNGFCG (disulfide (positions not given here)) [PCSK9 EET I-II 19]  20.5
22. GCGYWWRQWFCKQGSDCLAGCVCGPNGFCG (disulfide (positions not given here)) [PCSK9 EET I-II 7]  20.9
23. GCQQGYWWWYWFCKQDSDCLAGCVCGPNGFCG (disulfide (positions not given here)) [PCSK9 EET I-II 13]  26.0
24. GCWWWGRIHCKQDSDCLAGWGQHCG (disulfide (positions not given here)) [PCSK9 EET I-II 15]  44.9
